Experimental data taken from patent US20100068150A1, “Selective Caspase Inhibitors” (The Board of Trustees of the Leland Stanford Junior …, priority 2006, published 2010).

How the values were obtained:
Format in all cases: biochemical
Caspase-7 = target: T1, Caspase-7 (Homo sapiens, UniProt P55210); experiment: Kinetic compound screening, progress curve method, caspase-7; conditions: for Ki(app) Caspase-7: Table III, Ki(app) = Kass or Kobs/I, 5 nM active caspase-7; for Caspase-7 Ki (app): Table IV
T1 sequence (P55210 1-303): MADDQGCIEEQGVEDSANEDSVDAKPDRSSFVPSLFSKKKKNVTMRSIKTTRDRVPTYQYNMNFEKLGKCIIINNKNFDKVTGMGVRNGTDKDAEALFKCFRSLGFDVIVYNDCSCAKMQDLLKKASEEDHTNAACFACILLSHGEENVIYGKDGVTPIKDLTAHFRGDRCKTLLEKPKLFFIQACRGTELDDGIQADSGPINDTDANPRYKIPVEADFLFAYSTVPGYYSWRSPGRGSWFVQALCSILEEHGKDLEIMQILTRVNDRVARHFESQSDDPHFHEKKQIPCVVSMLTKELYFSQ
Outline: (§1)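 Progress-curve method under pseudo-first-order kinetics, giving Ki(app) (kobs/I, M^−1s^−1), in caspase reaction buffer. Active enzyme at 5 nM (caspase-3, -7), 10 nM (caspase-8) or 50 nM (caspase-9), preactivated at 37 °C for 5, 10 or 40 min respectively. Some caspase-9 compounds also run with 1 M sodium citrate replacing sucrose.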

Caspase-3 = target: T2, Caspase-3 (Homo sapiens, UniProt P42574); experiment: Kinetic compound screening, progress curve method, caspase-3; conditions: for Ki(app) Caspase-3: Table III, Ki(app) = Kass or Kobs/I, 5 nM active caspase-3; for Caspase-3 Ki(app): Table IV
T2 sequence (P42574 29-175 limits assumed): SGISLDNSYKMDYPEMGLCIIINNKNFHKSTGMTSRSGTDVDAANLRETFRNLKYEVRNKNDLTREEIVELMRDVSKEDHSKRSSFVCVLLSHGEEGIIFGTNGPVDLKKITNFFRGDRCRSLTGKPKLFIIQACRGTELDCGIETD
T2 sequence (P42574 176-277 limits assumed): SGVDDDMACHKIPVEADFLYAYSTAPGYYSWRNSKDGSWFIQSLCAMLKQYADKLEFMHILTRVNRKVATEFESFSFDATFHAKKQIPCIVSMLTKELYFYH
Outline: as §1

Caspase-8 = Caspase-8 (Homo sapiens, UniProt Q14790); experiment: Kinetic compound screening, progress curve method, caspase-8; conditions: for Ki(app) Caspase-8: Table III, Ki(app) = Kass or Kobs/I, 10 nM active caspase-8; for Caspase-8 Ki (app): Table IV, NI = no inhibition at concentrations tested
Outline: as §1

Caspase-8, sequence (Q14790 217-479): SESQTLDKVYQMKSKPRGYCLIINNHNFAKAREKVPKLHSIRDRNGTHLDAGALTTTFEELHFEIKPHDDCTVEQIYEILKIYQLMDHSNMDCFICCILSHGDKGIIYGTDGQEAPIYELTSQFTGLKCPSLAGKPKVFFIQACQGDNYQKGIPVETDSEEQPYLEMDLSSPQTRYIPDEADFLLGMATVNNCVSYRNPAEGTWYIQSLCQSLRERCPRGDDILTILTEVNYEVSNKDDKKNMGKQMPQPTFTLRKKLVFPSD

Ki(app) Caspase-7 (Caspase-7)	Caspase-7 Ki (app) (Caspase-7)	Ki(app) Caspase-3 (Caspase-3)	Caspase-3 Ki(app) (Caspase-3)	inhibition of caspase-8, in words (Caspase-8)	Ki(app) Caspase-8 (Caspase-8)	Caspase-8 Ki (app) (Caspase-8)	Compound
1,529,040 M^−1s^−1	1,529,040 M-1s-1	10,922,261 M^−1s^−1	10,922,261 M-1s-1	strong activity towards caspase-8	1,077,839 M^−1s^−1	1,077,839 M-1s-1	Cc1cccc(C)c1C(=O)OCC(=O)[C@H](CC(=O)O)NC(=O)[C@@H](NC(=O)[C@H](CCC(=O)O)NC(=O)[C@H](CC(=O)O)NC(=O)Cc1ccc(O)c([N+](=O)[O-])c1)C(C)C [AB09, Np-D-E- V-D-DMBA]
288,213 M^−1s^−1	288,213 M-1s-1	577,913 M^−1s^−1	577,913 M-1s-1		164,052 M^−1s^−1	164,052 M-1s-1	Bio-EVD-AOMK [KMB01, reference compound]

Compound	Ki(app) Caspase-7 (Caspase-7)	Caspase-7 Ki (app) (Caspase-7)	Ki(app) Caspase-3 (Caspase-3)	Caspase-3 Ki(app) (Caspase-3)	inhibition of caspase-8, in words (Caspase-8)	Ki(app) Caspase-8 (Caspase-8)	Caspase-8 Ki (app) (Caspase-8)
Cc1cccc(C)c1C(=O)OCC(=O)[C@H](CC(=O)O)NC(=O)[C@@H](NC(=O)[C@H](Cc1ccncc1)NC(=O)[C@H](CC(=O)O)NC(=O)Cc1ccc(O)c([N+](=O)[O-])c1)C(C)C [AB06, Np-D-3-V-D-DMBA]	968,070 M^−1s^−1	968,070 M-1s-1	7,456,511 M^−1s^−1	7,456,511 M-1s-1		32,909 M^−1s^−1	32,909 M-1s-1
